Experiment: molar heat capacity at constant pressure
Details: 101.33 kPa, Crystal, Vacuum adiabatic calorimetry

Nc1ccc([N+](=O)[O-])cn1 [2-amino-5-nitropyridine]
Details | molar heat capacity at constant pressure [J/K/mol]
80 K | 52.33
80.24 K | 52.77
84.16 K | 54.56
85 K | 55.34
87.02 K | 56.26
89.97 K | 58.05
90 K | 58.25
93.01 K | 60.06
95 K | 61.07
96.12 K | 61.79
99.15 K | 63.52
100 K | 63.81
102.11 K | 65.16
105 K | 66.48
105.16 K | 66.83
108.3 K | 68.54
110 K | 69.08
111.38 K | 69.97
114.4 K | 71.41
115 K | 71.62
117.37 K | 72.83
120 K | 74.11
120.43 K | 74.39
123.58 K | 76.05
125 K | 76.55
126.69 K | 77.4
129.75 K | 78.85
130 K | 78.95
132.77 K | 80.21
135 K | 81.31
135.75 K | 81.69
138.82 K | 82.97
140 K | 83.65
141.99 K | 84.37
145 K | 85.96
145.12 K | 85.83
148.21 K | 87.22
150 K | 88.25
151.26 K | 88.71
154.29 K | 90.07
155 K | 90.53
157.29 K | 91.42
160 K | 92.79
160.26 K | 92.54
163.32 K | 93.8
165 K | 95.05
166.47 K | 95.36
169.59 K | 96.53
170 K | 97.31
172.69 K | 97.56
175 K | 99.56
175.76 K | 99.17
178.81 K | 100.66
180 K | 101.83
181.83 K | 101.77
184.86 K | 103.74
185 K | 104.09
188 K | 105.44
190 K | 106.38
191.24 K | 107.04
194.48 K | 108.11
195 K | 108.67
197.71 K | 110.07
200 K | 110.98
200.95 K | 111.83
204.28 K | 113.75
205 K | 113.31
207.71 K | 115.82
210 K | 115.66
211.1 K | 117.36
214.45 K | 118.48
215 K | 118.02
217.75 K | 119.73
220 K | 120.42
220.98 K | 121.46
224.24 K | 123.44
225 K | 122.83
227.37 K | 125.24
230 K | 125.27
230.47 K | 126.78
233.53 K | 128
235 K | 127.73
236.7 K | 129.18

— the NIST ThermoML archive (doi:10.1016/j.tca.2007.04.006)
